Data set [1] has as its target T1, Intercellular adhesion molecule (ICAM-1), Integrin alpha-L/beta-2 (Homo sapiens) (UniProt P20701+P05362+P05107). To be noted: JY-8.
Description: 70% inhibition of JY-8 cell adhesion to ICAM-1 via leukocyte function-associated antigen-1 (LFA-1) without serum
Data set [2] deals with T1, Intercellular adhesion molecule (ICAM-1), Integrin alpha-L/beta-2 (Homo sapiens). To be noted: JY-8. This is another data set of the same source.
Description: 80% inhibition of JY-8 cell adhesion to ICAM-1 via leukocyte function-associated antigen-1 (LFA-1) withouot serum
Data set [3] concerns the target T2, Intercellular adhesion molecule (ICAM-1), Integrin alpha-L/beta-2 (Homo sapiens, UniProt P05107+P20701). In words: Ability to block the adherence of leukocyte function-associated antigen-1 (LFA-1) expressing JY-8 cells and intercellular adhesion molecule (ICAM-1) by 50% in absence of serum. The format is cell-based.
Data set [4] deals with T2, Intercellular adhesion molecule (ICAM-1), Integrin alpha-L/beta-2. Put plainly: 50% inhibition of JY-8 cell adhesion to ICAM-1 via leukocyte function-associated antigen-1 (LFA-1) with 50% FBS. The format is cell-based.
Data set [5] has as its target T1, Intercellular adhesion molecule (ICAM-1), Integrin alpha-L/beta-2 (Homo sapiens). The following applies: JY-8. This is another data set of the same source.
Description: 70% inhibition of JY-8 cell adhesion to ICAM-1 via leukocyte function-associated antigen-1 (LFA-1) with 50% FBS
For data set [6] the target is unchanged. The following applies: 50% FBS.
Description: 80% inhibition of JY-8 cell adhesion to ICAM-1 via leukocyte function-associated antigen-1 (LFA-1) with 50% FBS
Data set [7] is described as follows: Cmax of compound at 5 mg/kg after po administration was determined in rat. Type of data set: ADME, organism-based. Set-up: dose 5 mg/kg, route oral. To be noted: in vivo.
Data set [8] in a line: Oral bioavailability of compound at 5 mg/kg after po administration was determined in rat. The format is ADME, organism-based. To be noted: in vivo.
The nature of data set [9]: Half life of compound at 5 mg/kg after po administration was determined in rat. The format is ADME, organism-based. Set-up: dose 5 mg/kg, route oral. To be noted: in vivo.

The results in this text go back to ChEMBL document CHEMBL1134036, “Discovery and SAR of diarylsulfide cyclopropylamide LFA-1/ICAM-1 interaction antagonists” (Bioorg Med Chem Lett, 2001).

Each structure is given as a SMILES string.

T2 sequence (P20701 whole entry): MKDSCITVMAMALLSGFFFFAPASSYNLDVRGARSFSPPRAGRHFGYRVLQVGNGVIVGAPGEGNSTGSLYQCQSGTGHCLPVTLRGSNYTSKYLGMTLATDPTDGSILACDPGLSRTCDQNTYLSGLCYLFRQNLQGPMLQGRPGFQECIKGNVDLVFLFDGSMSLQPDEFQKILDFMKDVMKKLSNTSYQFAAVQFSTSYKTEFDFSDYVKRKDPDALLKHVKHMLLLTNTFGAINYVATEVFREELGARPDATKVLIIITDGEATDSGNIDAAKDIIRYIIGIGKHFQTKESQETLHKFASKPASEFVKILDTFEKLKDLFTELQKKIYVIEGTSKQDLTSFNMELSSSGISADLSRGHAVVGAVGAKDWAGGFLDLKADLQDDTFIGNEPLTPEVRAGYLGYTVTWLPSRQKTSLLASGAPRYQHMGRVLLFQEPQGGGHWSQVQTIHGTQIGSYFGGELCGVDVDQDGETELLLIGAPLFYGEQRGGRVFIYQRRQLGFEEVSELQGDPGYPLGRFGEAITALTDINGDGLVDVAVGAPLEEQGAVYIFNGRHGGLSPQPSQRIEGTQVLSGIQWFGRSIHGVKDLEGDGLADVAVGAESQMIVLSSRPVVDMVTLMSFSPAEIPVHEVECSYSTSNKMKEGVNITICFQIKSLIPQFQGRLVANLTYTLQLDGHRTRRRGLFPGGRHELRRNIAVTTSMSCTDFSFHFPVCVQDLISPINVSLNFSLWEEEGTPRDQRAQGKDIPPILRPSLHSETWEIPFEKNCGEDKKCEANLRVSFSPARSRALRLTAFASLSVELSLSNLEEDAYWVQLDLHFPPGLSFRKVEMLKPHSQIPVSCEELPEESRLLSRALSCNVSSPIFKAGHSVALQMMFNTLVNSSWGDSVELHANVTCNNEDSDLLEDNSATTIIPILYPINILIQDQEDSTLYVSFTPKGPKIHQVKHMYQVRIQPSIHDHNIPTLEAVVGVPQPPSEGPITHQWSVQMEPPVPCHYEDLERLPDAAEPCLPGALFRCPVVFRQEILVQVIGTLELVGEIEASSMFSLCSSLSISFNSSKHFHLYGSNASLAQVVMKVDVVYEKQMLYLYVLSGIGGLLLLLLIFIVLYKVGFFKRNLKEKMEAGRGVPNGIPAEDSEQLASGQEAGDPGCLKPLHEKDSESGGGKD
T2 sequence (P05362 whole entry, further chain): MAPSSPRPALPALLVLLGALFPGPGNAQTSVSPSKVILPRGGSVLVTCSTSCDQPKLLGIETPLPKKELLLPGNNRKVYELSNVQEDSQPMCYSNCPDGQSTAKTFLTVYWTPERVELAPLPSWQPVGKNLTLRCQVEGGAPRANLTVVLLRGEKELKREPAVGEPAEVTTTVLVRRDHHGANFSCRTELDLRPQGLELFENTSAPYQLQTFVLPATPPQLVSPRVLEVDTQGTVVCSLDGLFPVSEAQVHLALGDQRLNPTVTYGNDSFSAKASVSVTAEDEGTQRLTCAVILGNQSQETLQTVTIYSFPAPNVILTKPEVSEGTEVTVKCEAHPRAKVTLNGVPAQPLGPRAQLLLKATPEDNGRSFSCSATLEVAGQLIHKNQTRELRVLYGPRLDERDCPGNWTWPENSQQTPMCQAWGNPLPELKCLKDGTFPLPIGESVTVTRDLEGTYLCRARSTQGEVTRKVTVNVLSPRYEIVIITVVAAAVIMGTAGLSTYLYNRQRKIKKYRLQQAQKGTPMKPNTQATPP
T2 sequence (P05107 whole entry): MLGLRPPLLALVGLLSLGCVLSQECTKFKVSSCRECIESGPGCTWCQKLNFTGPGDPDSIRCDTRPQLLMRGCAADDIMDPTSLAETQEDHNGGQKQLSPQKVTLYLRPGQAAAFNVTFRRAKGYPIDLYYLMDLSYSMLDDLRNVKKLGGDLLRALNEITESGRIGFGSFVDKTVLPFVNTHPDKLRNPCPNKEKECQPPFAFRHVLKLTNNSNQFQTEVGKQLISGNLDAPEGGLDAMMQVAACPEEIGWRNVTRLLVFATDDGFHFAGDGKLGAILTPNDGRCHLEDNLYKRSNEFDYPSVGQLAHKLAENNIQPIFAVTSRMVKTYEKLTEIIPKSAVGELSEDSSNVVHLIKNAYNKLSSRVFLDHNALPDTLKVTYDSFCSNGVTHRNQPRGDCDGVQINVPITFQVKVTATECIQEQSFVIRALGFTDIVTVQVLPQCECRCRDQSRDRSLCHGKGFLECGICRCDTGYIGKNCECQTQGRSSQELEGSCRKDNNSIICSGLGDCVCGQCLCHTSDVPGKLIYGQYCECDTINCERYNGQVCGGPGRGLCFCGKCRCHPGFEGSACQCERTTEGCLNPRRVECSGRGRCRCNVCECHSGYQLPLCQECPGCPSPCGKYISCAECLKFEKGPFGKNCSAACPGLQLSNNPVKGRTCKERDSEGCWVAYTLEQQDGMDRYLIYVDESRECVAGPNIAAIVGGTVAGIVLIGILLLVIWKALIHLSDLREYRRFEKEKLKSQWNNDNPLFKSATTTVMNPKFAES

Broadly, the IC70 is the concentration at which the effect reaches the 70% level. A low value points to an effect from little substance. By IC80 is commonly meant the point of the concentration-response curve where the effect stands at 80%. A higher IC80 goes with a need for much substance. On to `CC(C)c1ccccc1Sc1ccc(C2CC2C(=O)N2CCC(C(=O)O)CC2)c(Cl)c1Cl` (stereo in doubt; 18a) [listing 1 of 2 here], for which the 70% effect level in data set [1] (IC70) was put at 24 nM. For the same compound, the IC80 in data set [2] amounted to 54 nM.
For orientation: IC50 means the midpoint of a concentration-inhibition curve. A higher IC50 goes with weaker potency in that assay. Consider `O=C(NCCCN1CCCC1=O)C1CC1c1ccc(Sc2ccccc2N2CCCCC2)c(C(F)(F)F)c1` (stereo unspecified), for which the IC50 in data set [3] is 40 nM.
The compound `CC(C)c1ccccc1Sc1ccc(C2CC2C(=O)NCCCN2CCCC2=O)c(Cl)c1Cl` (stereo in doubt; 12a) [listing 1 of 2 here] returned an IC70 in data set [1] of 40 nM. In data set [2], this compound displayed a concentration for an effect of 80% (IC80) of 63 nM.
`O=C(O)C1CCN(c2ccccc2Sc2ccc(C3CC3C(=O)NCCCN3CCCC3=O)cc2C(F)(F)F)CC1` (stereo unspecified): inhibition in [3] was half-maximal at 620 nM (IC50).
On to `CC(C)c1ccccc1Sc1ccc(C2CC2C(=O)N2CCCCC2C(=O)O)c(Cl)c1Cl` (stereo in doubt; 16a) [listing 1 of 2 here], for which the IC50 was 1480 nM in data set [4] and 13 nM in [3].
Take `CC(C)c1ccccc1Sc1ccc(C2CC2C(=O)NCC(=O)O)c(Cl)c1Cl` (stereo in doubt; 13a) [listing 1 of 2 here]: it took 50 nM to reach the 70% level in data set [1] (IC70). Further, it took 95 nM to reach the 80% level in data set [2] (IC80).
Take `O=C(O)C1CCCN(c2ccccc2Sc2ccc(C3CC3C(=O)NCCCN3CCCC3=O)c(Cl)c2Cl)C1` (stereo in doubt; 29) [listing 1 of 2 here]: the IC50 in data set [4] was 640 nM; in [3], 31 nM.
On to `CCOC(=O)C1CCCN(c2ccccc2Sc2ccc(C3CC3C(=O)NCCCN3CCCC3=O)cc2C(F)(F)F)C1` (stereo unspecified), for which the IC50 in data set [3] was found to be 100 nM.
Regarding `CC(C)c1ccccc1Sc1ccc(C2CC2C(=O)NCC(=O)O)c(Cl)c1Cl` (single isomer, unassigned), inhibition in data set [3] was half-maximal at 33 nM (IC50).
The same measure, in the same setting: to `CC(C)c1ccccc1Sc1ccc(C2CC2C(=O)N2CCC(C(=O)O)CC2)c(Cl)c1Cl` (single isomer, unassigned) belongs 21 nM.
Same read-out and setting: to `CC(C)c1ccccc1Sc1ccc(C2CC2C(=O)NCCCN2CCCC2=O)c(Cl)c1Cl` (stereo in doubt) belongs 6 nM; to `O=C(O)C1CCCN(c2ccccc2Sc2ccc(C3CC3C(=O)NCCCN3CCCC3=O)cc2C(F)(F)F)C1` (stereo unspecified), 50 nM.
On the same count and under the same terms, to `CCOC(=O)C1CCN(c2ccccc2Sc2ccc(C3CC3C(=O)NCCCN3CCCC3=O)cc2C(F)(F)F)CC1` (stereo unspecified) belongs 115 nM.
As for `O=C(O)C1CCCN(c2ccccc2Sc2ccc(C3CC3C(=O)NCCCN3CCCC3=O)c(Cl)c2Cl)C1` (stereo in doubt; 27) [listing 1 of 2 here], the IC50 in data set [4] came out at 33 nM; in [3] it was 15 nM.
`CC(C)c1ccccc1Sc1ccc(C2CC2C(=O)N2CCCC(C(=O)O)C2)c(Cl)c1Cl` (stereo in doubt; 17a) [listing 1 of 2 here] registered an IC70 in data set [1] of 13 nM. Further, it took 25 nM to reach the 80% level in [2] (IC80).
As for `O=C(O)C1CCCN(c2ccccc2Sc2ccc(C3CC3C(=O)NCCCN3CCCC3=O)c(Cl)c2Cl)C1` (stereo in doubt; 30) [listing 1 of 2 here], the results for the IC70 in data set [5] and in data set [1] were 89 nM and 10 nM, respectively. Further, the results for the IC80 in data set [2] and in data set [6] were 19 nM and 133 nM, respectively.
Consider `CC(C)c1ccccc1Sc1ccc(C2CC2C(=O)NCC(=O)O)c(Cl)c1Cl` (stereo in doubt; 13a) [listing 2 of 2 here], for which, in data set [3], the IC50 is 12 nM.
`O=C(O)C1CCCN(c2ccccc2Sc2ccc(C3CC3C(=O)NCCCN3CCCC3=O)c(Cl)c2Cl)C1` (stereo in doubt; 29) [listing 2 of 2 here]: the 70% effect concentration (IC70) was determined as 2100 nM in data set [5] and 97 nM in data set [1]. Besides, the IC80 in [2] came to 142 nM; in [6], 3200 nM.
`CC(C)c1ccccc1Sc1ccc(C2CC2C(=O)N2CCC(C(=O)O)CC2)c(Cl)c1Cl` (stereo in doubt; 18a) [listing 2 of 2 here]: the IC50 in [3] worked out at 9 nM.
In the case of `O=C(NCCCN1CCCC1=O)C1CC1c1ccc(Sc2ccccc2N2CCOCC2)c(C(F)(F)F)c1` (stereo unspecified), the IC50 in data set [3] is 15 nM.
Take `CC(C)c1ccccc1Sc1ccc(C2CC2C(=O)N2CCCCC2C(=O)O)c(Cl)c1Cl` (stereo in doubt; 16a) [listing 2 of 2 here]: the IC70 was determined as 3520 nM in data set [5] and 55 nM in data set [1]. Further, the values for the IC80 in data set [2] and in data set [6] were 110 nM and 8820 nM, respectively.
In turn, `O=C(NCCCN1CCCC1=O)C1CC1c1ccc(Sc2ccccc2N2CCCC2)c(C(F)(F)F)c1` (stereo unspecified) returned a half-maximal inhibitory concentration (IC50) in data set [3] of 32 nM.
The same measure, in the same setting: to `CN1CCN(c2ccccc2Sc2ccc(C3CC3C(=O)NCCCN3CCCC3=O)cc2C(F)(F)F)CC1` (stereo unspecified) belongs 200 nM; to `CC(C)c1ccccc1Sc1ccc(C2CC2C(=O)NCCC(=O)O)c(Cl)c1Cl` (stereo in doubt; 14a) [listing 1 of 2 here], 8 nM.
Turning to `O=C(O)C1CCCN(c2ccccc2Sc2ccc(C3CC3C(=O)NCCCN3CCCC3=O)c(Cl)c2Cl)C1` (stereo in doubt; 28) [listing 1 of 2 here], the results for the IC70 in [5] and in data set [1] were 116 nM and 21 nM, respectively. Further, the values for the IC80 in [2] and in data set [6] were 26 nM and 199 nM, respectively.
Consider `CC(C)c1ccccc1Sc1ccc(C2CC2C(=O)N2CCCCC2C(=O)O)c(Cl)c1Cl` (single isomer, unassigned), for which the IC50 in [3] was determined as 33 nM. This lies in the double-digit nanomolar range.
The compound `CC(C)c1ccccc1Sc1ccc(C2CC2C(=O)NCCCC(=O)O)c(Cl)c1Cl` (stereo in doubt; 15a) [listing 1 of 2 here] yielded an IC70 in [1] of 16 nM. For the same compound, the IC80 in data set [2] came out at 9 nM.
For the compound `O=C(O)C1CCCN(c2ccccc2Sc2ccc(C3CC3C(=O)NCCCN3CCCC3=O)c(Cl)c2Cl)C1` (stereo in doubt; 27) [listing 2 of 2 here], the figures for the IC70 in [5] and in data set [1] were 120 nM and 26 nM, respectively. In addition, the IC80 in data set [2] was 40 nM; in [6] it was 210 nM.
As to `CC(C)c1ccccc1Sc1ccc(C2CC2C(=O)NCCC(=O)O)c(Cl)c1Cl` (stereo in doubt; 14a) [listing 2 of 2 here], in data set [1], it took 26 nM to reach the 70% level (IC70). Further, in data set [2], the 80% effect level (IC80) was put at 54 nM.
`CC(C)c1ccccc1Sc1ccc(C2CC2C(=O)N2CCCC(C(=O)O)C2)c(Cl)c1Cl` (stereo in doubt) showed an IC50 in [3] of 17 nM.
In the case of `O=C(O)C1CCCN(c2ccccc2Sc2ccc(C3CC3C(=O)NCCCN3CCCC3=O)c(Cl)c2Cl)C1` (stereo in doubt; 30) [listing 2 of 2 here], the IC50 in data set [4] is 27 nM; in data set [3] it was 5 nM.
As to `CC(C)c1ccccc1Sc1ccc(C2CC2C(=O)NCCC(=O)O)c(Cl)c1Cl` (single isomer, unassigned), the IC50 in data set [3] is 34 nM. That is a double-digit nanomolar value.
The term Cmax denotes the highest concentration seen after dosing. For orientation: bioavailability means the share of a dose that reaches the circulation, judged against a reference dose that is usually intravenous. Read a high bioavailability as much systemic uptake. The half-life is the time in which the quantity being followed falls by half. Low values mean rapid decline, high ones slow decline. Turning to `O=C(O)C1CCCN(c2ccccc2Sc2ccc(C3CC3C(=O)NCCCN3CCCC3=O)c(Cl)c2Cl)C1` (stereo in doubt; 28) [listing 2 of 2 here], in data set [7], the highest level (Cmax) was 350 ng/mL. Moreover, the bioavailability in data set [8] was found to be 27%. Further, the IC50 was 29 nM in data set [4] and 10 nM in data set [3]. In data set [9], this compound gave a half-life of 1.2 h.
The compound `CC(C)c1ccccc1Sc1ccc(C2CC2C(=O)NCCCC(=O)O)c(Cl)c1Cl` (stereo in doubt; 15a) [listing 2 of 2 here] came in with an IC50 in [3] of 7 nM. That is a single-digit nanomolar value.
The same measure, in the same setting: to `CC(C)c1ccccc1Sc1ccc(C2CC2C(=O)NCCCN2CCCC2=O)c(Cl)c1Cl` (stereo in doubt; 12a) [listing 2 of 2 here] belongs 7 nM.
The same measure, in the same setting: to `CC(C)c1ccccc1Sc1ccc(C2CC2C(=O)NCCCC(=O)O)c(Cl)c1Cl` (stereo in doubt) belongs 26 nM; to `CC(C)c1ccccc1Sc1ccc(C2CC2C(=O)N2CCCC(C(=O)O)C2)c(Cl)c1Cl` (stereo in doubt; 17a) [listing 2 of 2 here], 6 nM.
